Reference: the supplement of paper PMC6045584
± gives the standard deviation of the averaged measurements.

Key:
[1] = compound: C[C@@H](Oc1cc(-c2cnn(C3CCNCC3)c2)cnc1N)c1c(Cl)ccc(F)c1Cl [CRIZOTINIB]; test: surviving fraction relative to DMSO-only wells; higher = less growth inhibition; conditions: exposure time: 5 days
Outline: (§1)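 Each tumour cell line was screened three times, and only lines with replicate Pearson r >0.7 and median Z' >0.3 were kept. Cells in log phase were seeded at 250–500 per well in 384-well plates, left 24 hours, then exposed continuously for five days to inhibitors at 0.5, 1, 5, 10, 50, 100, 500 and 1000 nM. Viability was read as CellTiter-Glo luminescence, with surviving fraction normalised to the median of DMSO-only wells.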

[2] = compound: CNCc1ccc(-c2[nH]c3cc(F)cc4c3c2CCNC4=O)cc1; test: as above; conditions: exposure time: 5 days
Outline: as §1

| Test System | surviving fraction ([1]; 0.5 nM) | surviving fraction ([1]; 1 nM) | surviving fraction ([1]; 10 nM) | surviving fraction ([1]; 50 nM) | surviving fraction ([1]; 100 nM) | surviving fraction ([1]; 500 nM) | surviving fraction ([1]; 1000 nM) | surviving fraction ([2]; 0.5 nM) | surviving fraction ([2]; 1 nM) | surviving fraction ([2]; 5 nM) | surviving fraction ([2]; 10 nM) | surviving fraction ([2]; 50 nM) | surviving fraction ([2]; 100 nM) | surviving fraction ([2]; 500 nM) | surviving fraction ([2]; 1000 nM) | surviving fraction ([1]; 5 nM) |
| --- | --- | --- | --- | --- | --- | --- | --- | --- | --- | --- | --- | --- | --- | --- | --- | --- |
| MG63 BONE | 1.05 ± 0.04 | 1.07 ± 0.053 | 1.11 ± 0.043 | 1.07 ± 0.051 | 1 ± 0.052 | 0.827 ± 0.034 | 0.743 ± 0.031 | 1.03 ± 0.052 | 1.04 ± 0.032 | 1.05 ± 0.034 | 1.06 ± 0.058 | 1.03 ± 0.03 | 1.02 ± 0.028 | 0.975 ± 0.031 | 0.938 ± 0.023 |  |
| MHM BONE | 1.03 ± 0.037 | 1.02 ± 0.034 | 1.1 ± 0.047 | 1.07 ± 0.02 | 1.05 ± 0.021 | 0.96 ± 0.011 | 0.884 ± 0.031 | 1.02 ± 0.025 | 1.02 ± 0.035 | 1.05 ± 0.015 | 1.06 ± 0.051 | 1.06 ± 0.039 | 1.074 ± 0.0062 | 1.09 ± 0.022 | 1.07 ± 0.041 | 1.09 ± 0.053 |
| NCIH441 LUNG | 1.23 ± 0.069 | 1.2 ± 0.067 | 1.12 ± 0.043 | 1.04 ± 0.045 | 0.967 ± 0.089 | 1.02 ± 0.058 | 0.83 ± 0.16 | 1.06 ± 0.08 | 0.973 ± 0.12 | 1.09 ± 0.064 | 1.01 ± 0.06 | 0.992 ± 0.051 | 0.809 ± 0.022 | 0.996 ± 0.022 | 0.923 ± 0.1 | 1.09 ± 0.038 |
| NOS1 BONE | 1.03 ± 0.12 | 1.13 ± 0.07 | 1.23 ± 0.2 | 1.11 ± 0.043 | 1.69 ± 0.86 | 0.69 ± 0.036 | 0.484 ± 0.051 | 1.01 ± 0.042 | 1.08 ± 0.23 | 1.06 ± 0.13 | 0.919 ± 0.11 | 0.795 ± 0.1 | 0.798 ± 0.11 | 0.632 ± 0.049 | 0.602 ± 0.036 | 1.11 ± 0.044 |
| NY BONE | 1.07 ± 0.052 | 1.06 ± 0.047 | 1.09 ± 0.038 | 1.08 ± 0.035 | 1.02 ± 0.021 | 0.883 ± 0.026 | 0.577 ± 0.018 | 0.989 ± 0.016 | 0.99 ± 0.044 | 1.05 ± 0.042 | 1.01 ± 0.055 | 0.981 ± 0.033 | 1.026 ± 0.0093 | 0.895 ± 0.03 | 0.827 ± 0.052 | 1.12 ± 0.041 |
| OS25HAL BONE | 1.06 ± 0.031 | 1.01 ± 0.028 |  |  |  | 0.929 ± 0.098 | 0.326 ± 0.016 | 0.98 ± 0.029 | 1.1 ± 0.024 | 1.017 ± 0.01 | 1.01 ± 0.032 | 0.954 ± 0.034 | 1.01 ± 0.052 | 1.003 ± 0.0071 | 0.98 ± 0.039 |  |
| OSHN BONE | 1.11 ± 0.026 | 1.12 ± 0.035 | 1.14 ± 0.027 | 1.12 ± 0.081 | 1.14 ± 0.044 | 1.08 ± 0.048 | 0.677 ± 0.067 | 1.03 ± 0.028 | 1.06 ± 0.028 | 1.01 ± 0.031 | 1.02 ± 0.048 | 0.945 ± 0.031 | 0.933 ± 0.029 | 0.959 ± 0.02 | 0.857 ± 0.036 | 1.12 ± 0.032 |
| PCI30 HEADNECK | 1.07 ± 0.075 | 1.12 ± 0.058 | 1.1 ± 0.072 | 1.03 ± 0.024 |  | 0.759 ± 0.055 | 0.6787 ± 0.0025 | 0.981 ± 0.059 | 1.04 ± 0.059 | 0.912 ± 0.019 | 0.937 ± 0.037 | 0.916 ± 0.056 | 0.944 ± 0.062 | 0.964 ± 0.044 | 0.956 ± 0.038 | 1.02 ± 0.028 |
| RDES SOFT TISSUE |  | 1.24 ± 0.083 | 1.15 ± 0.11 |  | 1.16 ± 0.1 | 1.44 ± 0.12 | 0.194 ± 0.047 | 1.15 ± 0.059 | 1.09 ± 0.17 | 1.02 ± 0.049 | 1.06 ± 0.042 | 0.918 ± 0.19 | 1.06 ± 0.089 | 1.14 ± 0.036 | 1.38 ± 0.15 |  |
| S68 BREAST | 0.895 ± 0.078 | 1.16 ± 0.3 | 0.981 ± 0.1 | 1.17 ± 0.26 |  | 0.417 ± 0.11 | 0.361 ± 0.049 | 1.19 ± 0.22 | 0.82 ± 0.23 | 0.959 ± 0.1 | 0.996 ± 0.26 | 0.676 ± 0.18 | 0.696 ± 0.17 | 0.691 ± 0.15 | 0.425 ± 0.11 | 1.04 ± 0.55 |
| SAOS2 BONE | 1.14 ± 0.063 | 1.12 ± 0.023 | 1.23 ± 0.068 | 1.34 ± 0.14 | 1.19 ± 0.1 | 0.541 ± 0.046 | 0.1927 ± 0.00058 | 1.12 ± 0.044 | 1.14 ± 0.08 | 1.14 ± 0.02 | 1.12 ± 0.16 | 0.844 ± 0.061 | 0.833 ± 0.069 | 0.747 ± 0.1 | 0.662 ± 0.021 | 1.2 ± 0.044 |
| SCC003 HEADNECK | 1.07 ± 0.043 |  | 1.06 ± 0.064 | 1.06 ± 0.045 | 1.09 ± 0.058 | 0.929 ± 0.1 | 0.793 ± 0.044 | 1.03 ± 0.045 | 1.05 ± 0.016 | 1.1 ± 0.059 | 1.05 ± 0.078 | 1.07 ± 0.047 | 1.05 ± 0.091 | 0.99 ± 0.11 | 0.918 ± 0.057 | 1.08 ± 0.13 |
| SCC36 HEADNECK | 1.05 ± 0.11 | 1.06 ± 0.026 | 1.24 ± 0.1 | 1.13 ± 0.17 | 1.07 ± 0.22 | 0.552 ± 0.072 | 0.301 ± 0.025 | 1.02 ± 0.15 | 0.999 ± 0.1 | 1.11 ± 0.024 | 1.07 ± 0.1 | 0.763 ± 0.057 | 0.728 ± 0.018 | 0.629 ± 0.019 | 0.592 ± 0.069 | 1.2 ± 0.088 |
| SCC47 HEADNECK | 1.11 ± 0.056 | 1.08 ± 0.068 | 1.16 ± 0.034 | 1.18 ± 0.018 | 1.15 ± 0.11 |  |  | 1.04 ± 0.067 | 1.03 ± 0.042 | 1.08 ± 0.048 | 1.12 ± 0.025 | 1.04 ± 0.07 | 1.05 ± 0.074 | 1.05 ± 0.032 | 0.987 ± 0.063 | 1.13 ± 0.048 |
| SCC90 HEADNECK | 1.06 ± 0.036 | 0.972 ± 0.058 | 1.1 ± 0.067 | 1.08 ± 0.0074 | 1.12 ± 0.066 | 0.9977 ± 0.0097 | 0.762 ± 0.085 | 0.96 ± 0.039 | 1 ± 0.071 | 0.998 ± 0.058 | 1.06 ± 0.1 | 0.934 ± 0.13 | 0.916 ± 0.062 | 0.9207 ± 0.0047 | 0.948 ± 0.11 | 1.04 ± 0.087 |
| SG27 HEADNECK | 1.25 ± 0.084 | 1.09 ± 0.11 | 1.14 ± 0.022 | 1.12 ± 0.17 | 1.11 ± 0.091 | 1.18 ± 0.13 |  | 1.15 ± 0.14 | 1.18 ± 0.21 | 0.878 ± 0.14 | 1.14 ± 0.11 | 0.968 ± 0.093 | 0.923 ± 0.03 | 1.05 ± 0.062 | 0.989 ± 0.063 |  |
| SG28 HEADNECK | 1.06 ± 0.052 | 1.18 ± 0.1 | 1.22 ± 0.055 | 1.08 ± 0.025 | 1.15 ± 0.12 | 1.044 ± 0.0092 |  | 1.09 ± 0.1 | 0.995 ± 0.011 | 0.953 ± 0.012 | 1 ± 0.073 | 0.763 ± 0.056 | 0.723 ± 0.046 | 0.798 ± 0.086 | 0.76 ± 0.12 |  |
| SG31 HEADNECK |  | 1.2 ± 0.13 | 1.22 ± 0.24 | 1.17 ± 0.26 | 1.19 ± 0.18 | 0.856 ± 0.073 | 0.6 ± 0.058 | 1.31 ± 0.25 | 1.14 ± 0.13 | 1.11 ± 0.15 | 1.12 ± 0.092 | 0.922 ± 0.12 | 0.845 ± 0.061 | 0.929 ± 0.12 | 0.947 ± 0.09 | 1.01 ± 0.12 |
